According to publication PMC5426080, “Catalytic Intermediate Crystal Structures of Cysteine Desulfurase from the Archaeon Thermococcus onnurineus NA1” (Archaea, 2017):
Values belong to the molecule of their own block, whether it stands above or below them.

Key:
[1] = molecular target: T1, ToCDS (cysteine desulfurase, CDS) (Thermococcus onnurineus, UniProt B6YT87); assay: X-ray crystallography; type: binding
T1 construct: gene TON_0289; full length, 399 residues, N-terminal 7xHis-TEV tag (cleavage not mentioned), E. coli BL21(DE3), about 44 kDa, homodimer; PLP on Lys216, catalytic Cys356; EC 2.8.1.7; primers encode N-terminus MIPEDV and C-terminus KGLKT
Excerpt: X-ray crystallography on ToCDS (cysteine desulfurase, CDS) | PLP was Schiff-base linked with […] at the active site. | the alanine was tightly bound: the conserved […] side chain had bifurcated hydrogen bonds

[2] = molecular target: cysteine desulfurase from Thermococcus onnurineus NA1 (Thermococcus onnurineus NA1); assay: crystal structure; ToCDS alone (crystal I, NAT, 2.6 Å, space group P212121), a dimer in the asymmetric unit; crystals II-IV soaked or co-crystallised with 5 mM L-cysteine and 1 mM PLP, each with protomers A and B

T1 sequence (B6YT87 entry or part of it): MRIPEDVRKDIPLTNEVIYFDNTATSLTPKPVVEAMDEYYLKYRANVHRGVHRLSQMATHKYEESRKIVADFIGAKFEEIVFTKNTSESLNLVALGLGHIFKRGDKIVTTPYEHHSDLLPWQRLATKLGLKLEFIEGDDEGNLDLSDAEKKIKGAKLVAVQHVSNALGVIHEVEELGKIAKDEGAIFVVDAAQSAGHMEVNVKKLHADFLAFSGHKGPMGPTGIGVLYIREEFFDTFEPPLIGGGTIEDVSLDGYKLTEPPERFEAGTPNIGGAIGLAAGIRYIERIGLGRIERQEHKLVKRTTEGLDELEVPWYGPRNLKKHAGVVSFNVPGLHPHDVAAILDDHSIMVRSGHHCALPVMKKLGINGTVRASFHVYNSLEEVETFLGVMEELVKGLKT

Molecule: Cc1ncc(COP(=O)(O)O)c(C=O)c1O [PLP, pyridoxal 5′-phosphate]
X-ray crystallography ([1]; covalent, internal aldimine Schiff base with Lys216, native crystal I, 2.6 Å, pH 8.5): PLP was Schiff-base linked with Lys216 at the active site.

Molecule: C[C@H](N)C(=O)O [alanine]
X-ray crystallography ([1]; crystal III 1.5 Å (protomer A: unbonded alanine, internal aldimine; protomer B: gem-diamine) and crystal II 2.3 Å (gem-diamine, covalent to PLP), from L-cysteine and PLP by cocrystallization or soakin): the alanine was tightly bound: the conserved Arg371 side chain had bifurcated hydrogen bonds

stoichiometry N [2]: 2
Molecule: cysteine desulfurase from Thermococcus onnurineus NA1 (enzyme)
